Assay results taken from patent US9056843B2, “Trifluoromethyl-oxadiazole derivatives and their use in the treatment of disease” (NOVARTIS AG, priority 2011, dated 2015).
Read-outs that look alike come from different tables or passages of the source.

Legend:
Assay type in all cases: biochemical
[1] = target: Human recombinant full length HDAC6 (Homo sapiens (Human), UniProt Q9UBN7); assay: Test 4: HDAC6 assay
Protocol: (§1) Control wells with HDAC4 only (positive control) and without HDAC4 (negative control) were included on the microplate. Bovine trypsin (4.5 μl of a 300 nM solution) was added and the plate incubated for additional 15 minutes at room temperature. The plate was placed in a fluorescence microplate reader, and read at an excitation wavelength of 360 nm and an emission wavelength of 450 nm with a 10 nm bandpath. Fluorescence values for all wells containing HDAC4 (positive control and wells with test compound) were corrected by subtracting negative control fluorescence values, and IC50 values were calculated by fitting the dose-response curves to a 4-parameter logistic function.
Test 4: HDAC6 Assay Description
A similar assay procedure as described in Test 2 was used for HDAC6. Human recombinant full length HDAC6 expressed in a baculovirus expression system was purchased from BPS BioSciences (San Diego, Calif., U.S.A.). The substrate used in the […] assay was 5 μM of acetyl-Gly-Ala-Lys(acetyl)-AMC.

Human recombinant HDAC4 = Human recombinant HDAC4 (Homo sapiens (Human), UniProt P56524); assay: Test 2: HDAC4 assay (fluorogenic substrate, 5 μM acetyl-Gly-Ala-Lys(ε-trifluoroacetyl)-AMC); conditions: Test 2 (values without asterisk)
Protocol: Test 2: HDAC4 Assay Description
as §1

[2] = target: Human recombinant full length HDAC1 (Homo sapiens (Human), UniProt Q13547); assay: Test 3: HDAC1 assay; conditions: substrate 5 μM acetyl-Gly-Ala-Lys(acetyl)-AMC
Protocol: as §1
Test 3: HDAC1 Assay Description
A similar assay procedure as described in Test 2 was used for HDAC1. Human recombinant full length HDAC1 expressed in a baculovirus expression system was purchased from BPS BioSciences (San Diego, Calif., U.S.A.). The substrate used in the […] assay was 5 μM of acetyl-Gly-Ala-Lys(acetyl)-AMC.

[3] = Test 4, substrate 5 μM acetyl-Gly-Ala-Lys(acetyl)-AMC

Chain of Human recombinant full length HDAC1 (Q13547 whole entry): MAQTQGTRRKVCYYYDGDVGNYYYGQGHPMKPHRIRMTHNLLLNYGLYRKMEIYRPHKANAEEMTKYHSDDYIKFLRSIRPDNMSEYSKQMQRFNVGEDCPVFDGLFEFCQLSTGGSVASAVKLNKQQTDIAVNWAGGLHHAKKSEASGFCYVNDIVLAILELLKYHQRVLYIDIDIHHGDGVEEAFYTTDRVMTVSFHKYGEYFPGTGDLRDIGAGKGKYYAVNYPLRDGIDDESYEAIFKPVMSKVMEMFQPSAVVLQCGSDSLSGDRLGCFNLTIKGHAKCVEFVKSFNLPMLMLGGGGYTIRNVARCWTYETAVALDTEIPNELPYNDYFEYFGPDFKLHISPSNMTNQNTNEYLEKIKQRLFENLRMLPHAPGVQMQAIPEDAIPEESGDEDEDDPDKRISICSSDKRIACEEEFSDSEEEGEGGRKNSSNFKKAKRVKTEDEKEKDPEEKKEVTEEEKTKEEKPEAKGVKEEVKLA
Chain of Human recombinant full length HDAC6 (Q9UBN7 whole entry): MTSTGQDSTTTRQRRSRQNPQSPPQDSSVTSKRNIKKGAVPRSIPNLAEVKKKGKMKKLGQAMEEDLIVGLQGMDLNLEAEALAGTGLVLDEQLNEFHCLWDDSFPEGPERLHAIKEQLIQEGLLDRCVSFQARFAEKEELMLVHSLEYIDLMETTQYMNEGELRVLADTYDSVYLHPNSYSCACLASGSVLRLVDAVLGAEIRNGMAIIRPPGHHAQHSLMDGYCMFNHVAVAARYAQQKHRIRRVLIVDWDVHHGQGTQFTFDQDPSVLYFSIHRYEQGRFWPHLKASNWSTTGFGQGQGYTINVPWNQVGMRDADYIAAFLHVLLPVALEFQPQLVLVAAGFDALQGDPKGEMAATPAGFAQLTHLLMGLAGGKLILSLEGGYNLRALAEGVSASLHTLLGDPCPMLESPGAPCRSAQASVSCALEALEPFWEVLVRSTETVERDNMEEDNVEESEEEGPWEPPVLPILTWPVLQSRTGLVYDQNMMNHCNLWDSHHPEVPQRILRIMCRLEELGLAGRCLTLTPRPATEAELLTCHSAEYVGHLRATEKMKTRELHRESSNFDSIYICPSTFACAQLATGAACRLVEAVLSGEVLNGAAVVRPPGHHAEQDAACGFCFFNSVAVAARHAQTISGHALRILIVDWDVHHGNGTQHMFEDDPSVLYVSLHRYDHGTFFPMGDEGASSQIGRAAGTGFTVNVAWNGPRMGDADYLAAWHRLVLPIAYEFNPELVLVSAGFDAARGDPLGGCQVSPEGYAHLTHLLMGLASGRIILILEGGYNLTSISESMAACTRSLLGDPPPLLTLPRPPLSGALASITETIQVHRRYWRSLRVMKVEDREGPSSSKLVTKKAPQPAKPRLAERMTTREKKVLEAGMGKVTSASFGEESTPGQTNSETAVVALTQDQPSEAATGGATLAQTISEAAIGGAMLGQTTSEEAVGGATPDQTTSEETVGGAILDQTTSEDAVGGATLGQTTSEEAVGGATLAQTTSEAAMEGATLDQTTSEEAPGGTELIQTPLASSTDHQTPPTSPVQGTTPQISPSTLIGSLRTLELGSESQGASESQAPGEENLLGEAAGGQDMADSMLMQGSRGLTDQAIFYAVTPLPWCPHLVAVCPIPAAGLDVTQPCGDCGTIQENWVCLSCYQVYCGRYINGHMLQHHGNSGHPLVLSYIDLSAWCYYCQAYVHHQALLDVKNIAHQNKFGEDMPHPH
Chain of Human recombinant HDAC4 (P56524 2-1084): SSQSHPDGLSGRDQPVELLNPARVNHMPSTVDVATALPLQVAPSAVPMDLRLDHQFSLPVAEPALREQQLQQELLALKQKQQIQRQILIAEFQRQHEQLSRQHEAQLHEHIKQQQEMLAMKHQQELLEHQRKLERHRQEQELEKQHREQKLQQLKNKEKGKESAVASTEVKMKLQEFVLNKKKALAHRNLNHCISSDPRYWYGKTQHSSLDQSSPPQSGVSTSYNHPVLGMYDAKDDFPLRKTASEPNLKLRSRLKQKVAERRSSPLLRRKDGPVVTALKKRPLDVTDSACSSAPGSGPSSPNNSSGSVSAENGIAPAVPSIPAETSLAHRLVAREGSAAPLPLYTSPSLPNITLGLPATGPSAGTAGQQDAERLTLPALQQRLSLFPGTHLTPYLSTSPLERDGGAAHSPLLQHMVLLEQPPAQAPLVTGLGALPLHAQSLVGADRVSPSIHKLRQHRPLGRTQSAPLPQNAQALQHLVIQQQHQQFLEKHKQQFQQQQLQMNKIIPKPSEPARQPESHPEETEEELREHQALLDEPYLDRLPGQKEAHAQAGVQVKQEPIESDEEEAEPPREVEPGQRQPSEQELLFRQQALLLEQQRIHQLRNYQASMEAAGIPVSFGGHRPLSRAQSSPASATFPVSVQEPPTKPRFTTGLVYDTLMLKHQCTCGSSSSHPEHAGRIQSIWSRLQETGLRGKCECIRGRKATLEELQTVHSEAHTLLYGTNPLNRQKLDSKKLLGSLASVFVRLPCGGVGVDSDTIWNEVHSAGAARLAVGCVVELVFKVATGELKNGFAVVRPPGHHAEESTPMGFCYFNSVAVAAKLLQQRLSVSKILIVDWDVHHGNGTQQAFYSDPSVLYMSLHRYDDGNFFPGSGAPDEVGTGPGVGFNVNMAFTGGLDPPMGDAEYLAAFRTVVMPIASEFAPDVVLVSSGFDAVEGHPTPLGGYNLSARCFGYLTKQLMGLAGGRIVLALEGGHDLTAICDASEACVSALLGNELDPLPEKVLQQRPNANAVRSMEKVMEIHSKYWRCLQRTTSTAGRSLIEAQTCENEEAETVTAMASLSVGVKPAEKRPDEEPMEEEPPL

Row | SMILES | IC50 [1, 3] | IC50 (Human recombinant HDAC4) | IC50 [2] | IC50 [1]
1 | CN(C)C(=O)c1ccc(-c2noc(C(F)(F)F)n2)cc1 [Example 1, N,N-dimethyl-4-(5-(trifluoromethyl)-1,2,4-oxadiazol-3-yl)benzamide] | > 10 µM | 0.36 µM | > 10 µM | –
2 | CNC(=O)Cc1ccc(-c2noc(C(F)(F)F)n2)cc1 [Example 3, N-methyl-2-[4-(5-trifluoromethyl-[1,2,4]oxadiazol-3-yl)-phenyl]-acetamide] | > 10 µM | 1.9 µM | > 10 µM | –
3 | CN1CCN(C(=O)Cc2ccc(-c3noc(C(F)(F)F)n3)cc2)CC1 [Example 10, 1-(4-methylpiperazin-1-yl)-2-(4-(5-(trifluoromethyl)-1,2,4-oxadiazol-3-yl)phenvyl)ethanone] | 5.6 µM | 1.3 µM | > 10 µM | –
4 | O=C(NCCO)c1ccc(-c2noc(C(F)(F)F)n2)cc1 [Example 13, N-(2-hydroxyethyl)-4-(5-(trifluoromethyl)-1,2,4-oxadiazol-3-yl)benzamide] | 8.9 µM | 0.66 µM | > 10 µM | –
5 | CCN(C)C(=O)c1ccc(-c2noc(C(F)(F)F)n2)cc1 [Example 14, N-ethyl-N-methyl-4-(5-(trifluoromethyl)-1,2,4-oxadiazol-3-yl)benzamide] | > 10 µM | 0.9 µM | > 10 µM | –
6 | CN(CCO)C(=O)c1ccc(-c2noc(C(F)(F)F)n2)cc1 [Example 15, N-(2-hydroxyethyl)-N-methyl-4-(5-(trifluoromethyl)-1,2,4-oxadiazol-3-yl)benzamide] | > 10 µM | 0.99 µM | > 10 µM | –
7 | O=C(NCCCO)c1ccc(-c2noc(C(F)(F)F)n2)cc1 [Example 17, N-(3-hydroxyypropyl)-4-(5-(trifluoromethyl)-1,2,4-oxadiazol-3-yl)benzamide] | – | 1.4 µM | > 10 µM | 8.6 µM
8 | COCCN(C)C(=O)c1ccc(-c2noc(C(F)(F)F)n2)cc1 [Example 18, N-(2-methoxyethyl)-N-methyl-4-(5-(trifluoromethyl)-1,2,4-oxadiazol-3-yl)benzamide] | > 10 µM | 0.39 µM | > 10 µM | –
9 | CC(C)NC(=O)c1ccc(-c2noc(C(F)(F)F)n2)cc1 [Example 20, N-isopropyl-4-(5-(trifluoromethyl)-1,2,4-oxadiazol-3-yl)benzamide] | > 10 µM | 1 µM | > 10 µM | –
10 | CC(C)N(C)C(=O)c1ccc(-c2noc(C(F)(F)F)n2)cc1 [Example 24, N-isopropyl-N-methyl-4-(5-(trifluoromethyl)-1,2,4-oxadiazol-3-yl)benzamide] | > 10 µM | 0.77 µM | > 10 µM | –
11 | CC(C)CNC(=O)c1ccc(-c2noc(C(F)(F)F)n2)cc1 [Example 27, N-isobutyl-4-(5-(trifluoromethyl)-1,2,4-oxadiazol-3-yl)benzamide] | > 10 µM | 1.2 µM | > 10 µM | –
12 | O=C(NC1CCCC1)c1ccc(-c2noc(C(F)(F)F)n2)cc1 [Example 29, N-cyclopentyl-4-(5-(trifluoromethyl)-1,2,4-oxadiazol-3-yl)benzamide] | > 10 µM | 1.2 µM | > 10 µM | –
13 | CCC(CC)NC(=O)c1ccc(-c2noc(C(F)(F)F)n2)cc1 [Example 30, N-(pentan-3-yl)-4-(5-(trifluoromethyl)-1,2,4-oxadiazol-3-yl)benzamide] | > 10 µM | 6.4 µM | > 10 µM | –
14 | O=C(c1ccc(-c2noc(C(F)(F)F)n2)cc1)N1CCCCC1 [Example 33, Piperidin-1-yl(4-(5-(trifluoromethyl)-1,2,4-oxadiazol-3-yl)phenyl)methanone] | > 10 µM | 0.4 µM | > 10 µM | –
15 | O=C(NC1CCCCC1)c1ccc(-c2noc(C(F)(F)F)n2)cc1 [Example 34, N-cyclohexyl-4-(5-(trifluoromethyl)-1,2,4-oxadiazol-3-yl)benzamide] | > 10 µM | 0.75 µM | > 10 µM | –
16 | O=C(Nc1ccccc1)c1ccc(-c2noc(C(F)(F)F)n2)cc1 [Example 35, N-phenyl-4-(5-(trifluoromethyl)-1,2,4-oxadiazol-3-yl)benzamide] | > 10 µM | 6.7 µM | > 10 µM | –
17 | O=C(N[C@H]1CCNC1)c1ccc(-c2noc(C(F)(F)F)n2)cc1 [Example 87, (S)—N-(pyrrolidin-3-yl)-4-(5-(trifluoromethyl)-1,2,4-oxadiazol-3-yl)benzamide] | – | 0.3 µM | – | –

Continued by falling IC50 [1, 3], values first:

Row | IC50 [1, 3] | IC50 (Human recombinant HDAC4) | IC50 [2] | SMILES | IC50 [1]
18 | 8.9 µM | 1.1 µM | > 10 µM | CON(C)C(=O)Cc1ccc(-c2noc(C(F)(F)F)n2)cc1 [Example 11, N-methoxy-N-methyl-2-(4-(5-(trifluoromethyl)-1,2,4-oxadiazol-3-yl)phenvyl)acetamide] | –
19 | 7.9 µM | 0.62 µM | > 10 µM | CN(C)C(=O)Cc1ccc(-c2noc(C(F)(F)F)n2)cc1 [Example 4, N,N-Dimethyl-2-[4-(5-trifluoromethyl-[1,2,4]oxadiazol-3-yl)-phenyl]-acetamide] | –
20 | 7.7 µM | 0.35 µM | > 10 µM | C[C@H](CO)NC(=O)c1ccc(-c2noc(C(F)(F)F)n2)cc1 [Example 28, (R)—N-(1-hydroxyypropan-2-yl)-4-(5-(trifluoromethyl)-1,2,4-oxadiazol-3-yl)benzamide] | –
21 | 7.6 µM | 0.58 µM | > 10 µM | CCOC(=O)CNC(=O)Cc1ccc(-c2noc(C(F)(F)F)n2)cc1 [Example 8, Ethyl 2-(2-(4-(5-(trifluoromethyl)-1,2,4-oxadiazol-3-yl)phenyl)acetamido)acetate] | –
22 | 7.05 µM | 0.08 µM | 7.6 µM | CN(C)CCNC(=O)c1ccc(-c2noc(C(F)(F)F)n2)cc1 [Example 31, N-(2-(dimethylamino)ethyl)-4-(5-(trifluoromethyl)-1,2,4-oxadiazol-3-yl)benzamide] | –
23 | 6.9 µM | 0.96 µM | > 10 µM | COCCNC(=O)Cc1ccc(-c2noc(C(F)(F)F)n2)cc1 [Example 7, N-(2-methoxyethyl)-2-(4-(5-(trifluoromethyl)-1,2,4-oxadiazol-3-yl)phenyl)acetamide] | –
24 | 6.8 µM | 1.4 µM | > 10 µM | COCCNC(=O)c1ccc(-c2noc(C(F)(F)F)n2)cc1 [Example 16, N-(2-methoxyethyl)-4-(5-(trifluoromethyl)-1,2,4-oxadiazol-3-yl)benzamide] | –
25 | 6.5 µM | 0.47 µM | > 10 µM | O=C(NC1CCC1)c1ccc(-c2noc(C(F)(F)F)n2)cc1 [Example 25, N-cyclobutyl-4-(5-(trifluoromethyl)-1,2,4-oxadiazol-3-yl)benzamide] | –
26 | 6 µM | 1.5 µM | > 10 µM | O=C(c1ccc(-c2noc(C(F)(F)F)n2)cc1)N1CCCC1 [Example 23, Pyrrolidin-1-yl(4-(5-(trifluoromethyl)-1,2,4-oxadiazol-3-yl)phenyl)methanone] | –
27 | 5.7 µM | 0.73 µM | > 10 µM | COCCCNC(=O)c1ccc(-c2noc(C(F)(F)F)n2)cc1 [Example 21, N-(3-methoxyypropyl)-4-(5-(trifluoromethyl)-1,2,4-oxadiazol-3-yl)benzamide] | –
28 | 5.5 µM | 0.85 µM | > 10 µM | O=C(Cc1ccc(-c2noc(C(F)(F)F)n2)cc1)N1CCOCC1 [Example 9, 1-Morpholino-2-(4-(5-(trifluoromethyl)-1,2,4-oxadiazol-3-yl)phenyl)ethanone] | –
29 | 4.1 µM | 0.43 µM | > 10 µM | CCNC(=O)c1ccc(-c2noc(C(F)(F)F)n2)cc1 [Example 12, N-ethyl-4-(5-(trifluoromethyl)-1,2,4-oxadiazol-3-yl)benzamide] | –
30 | 3.2 µM | 0.53 µM | > 10 µM | CNC(=O)c1ccc(-c2noc(C(F)(F)F)n2)cc1 [Example 2, N-Methyl-4-(5-(trifluoromethyl)-1,2,4-oxadiazol-3-yl)benzamide] | –
31 | 3.2 µM | 0.63 µM | > 10 µM | CCCCNC(=O)Cc1ccc(-c2noc(C(F)(F)F)n2)cc1 [Example 6, N-butyl-2-(4-(5-(trifluoromethyl)-1,2,4-oxadiazol-3-yl)phenyl)acetamide] | –
32 | 3.2 µM | 0.61 µM | > 10 µM | O=C(NCC1CC1)c1ccc(-c2noc(C(F)(F)F)n2)cc1 [Example 26, N-(cyclopropylmethyl)-4-(5-(trifluoromethyl)-1,2,4-oxadiazol-3-yl)benzamide] | –
33 | 3.1 µM | 0.97 µM | > 10 µM | CC(C)NC(=O)Cc1ccc(-c2noc(C(F)(F)F)n2)cc1 [Example 5, N-Isopropyl-2-[4-(5-trifluoromethyl-[1,2,4]oxadiazol-3-yl)-phenyl]-acetamide] | –
34 | 3 µM | – | 2.2 µM | CCCN(CCC)C[C@@H](C)NC(=O)c1ccc(-c2noc(C(F)(F)F)n2)cc1 [Example 137, (R)—N-(1-(dipropylamino)propan-2-yl)-4-(5-(trifluoromethyl)-1,2,4-oxadiazol-3-yl)benzamide] | –
